Data: patent US20260335329A1, “PROTEIN PHOSPHATASE AGONIST AND USE” (priority 2022, published 2026)
“And” between values parts separate entries of the source, which are not always exact repeats. Equal entries are not always repeated. Structures can show the parent of a compound that is named as a salt.

Columns and labels:
PC12 cells = assay: Survival rate of PC12 cells in the okadaic acid-induced injury model (CCK-8); assay type: cell-based
Experimental: PC12 cells were detached and counted. A cell suspension was prepared at 8.0×10^4 cells/mL. 100 μL of the cell suspension was added to each well of a 96-well cell culture plate. The 96-well cell culture plate was placed in an incubator at 37° C. in 5% CO2 and cultured for 24 h. In an experimental group, the PC12 cells were pre-incubated for 2 h in a culture medium containing a test compound (the concentrations of the compound were 0.1 μmol/L, 0.5 μmol/L, 1 μmol/L, 5 μmol/L, and 10 μmol/L respectively, and the concentrations of the compound were set according to the concentrations in Table 5, Table 6, Table 7, and Table 8). […] In addition, a negative control group (no test compound or okadaic acid added) and a model group (only okadaic acid added) were set. The 96-well cell culture plate was placed in an incubator at 37° C. in 5% CO2 and cultured for 24 h. The cells in the 96-well cell culture plate were stained with 10 μL of CCK-8 in each well, and then cultured in the incubator for 1 h to 2 h. The 96-well cell culture plate was shaken gently for 10 min to mix uniformly and remove bubbles from the 96-well cell culture plate. The OD value of each well at 2=450 nm was read by using a microplate reader. A survival rate of cells was calculated.
Calculation formula for the cell survival rate: […]
The effect of each compound on the survival rate of PC12 cells in the okadaic acid- and Aβ1-42-induced injury models was determined by the CCK-8 cell proliferation assay.

PP2A = assay: Okadaic acid-induced PP2A protein expression level in PC12 cells (Western Blot); assay type: cell-based; conditions: for PP2A (Western Blot signal) / PP2A(%): 24 h
Experimental: PC12 cells were inoculated into a T25 culture flask. After the cells were attached to the wall, compound 1 and compound 2 were added, and then the cells were incubated for 2 h. 40 nmol/L okadaic acid was then added. Then, the cells were incubated for 24 h. The protein was extracted. Based on the Western Blot assay, the PP2A protein expression level in PC12 cells was detected through SDS-PAGE and transfer, immunoblotting, color development, and G: BOX chemiXR5 imaging.

[1] = tested on: p-tauSer396 in SH-SY5Y cells; assay: Okadaic acid-induced phosphorylation of tau protein (p-tauSer396) in SH-SY5Y cells (Western Blot); assay type: cell-based, human; conditions: okadaic acid 40 nmol/L alone (model group), 24 h, SEM, n = 3
Experimental: SH-SY5Y cells were cultured in vitro for 24 h in culture media containing different concentrations of compound 2. Then, the cells were treated with 40 nmol/L okadaic acid for 24 h. The p-tauSer396 level of the SH-SY5Y cells was measured by the Western Blot assay.

[2] = Rattus norvegicus, PC-12, 24 h, compound 5 μmol/L, 2 h, then okadaic acid 50 nmol/L, 24 h, PC12 cells
[3] = compound 5 μmol/L, 2 h, then okadaic acid 50 nmol/L, 24 h, PC12 cells
[4] = compound 1 μmol/L, 2 h, then okadaic acid 40 nmol/L
[5] = compound 5 μmol/L, 2 h, then okadaic acid 40 nmol/L
[6] = compound 10 μmol/L, 2 h, then okadaic acid 40 nmol/L

Compound: COCc1cc2oc(=N)c3cc(Cl)ccc3n2n1 [Compound 12, 2-(methoxymethyl)-7-chloro-5H-benzo[d]pyrazolo[5,1-b][1,3]oxazin-5-imine]
- viability at 5 µM (PC12 cells; [2]): 66.7%
- OD value at 450 nm, Mean ± SD (PC12 cells; [3]): 0.866 ± 0.003

Compound: CCCOCc1cc2oc(=N)c3cc(F)ccc3n2n1 [Compound 16, 2-(propoxymethyl)-7-fluoro-5H-benzo[d]pyrazolo[5,1-b][1,3]oxazin-5-imine]
- viability at 5 µM (PC12 cells; [2]): 66.9%
- OD value at 450 nm, Mean ± SD (PC12 cells; [3]): 0.869 ± 0.005

Compound: N=c1oc2cc(COC=O)nn2c2ccccc12 [Compound 5, (5-imino-5H-benzo[d]pyrazolo[5,1-b][1,3]oxazin-2-yl)methyl formate]
- viability at 5 µM (PC12 cells; [2]): 65.6%
- OD value at 450 nm, Mean ± SD (PC12 cells; [3]): 0.852 ± 0.004

Compound: C=C1[C@@H](O)[C@@H]2O[C@]3(CC[C@H](/C=C/[C@@H](C)[C@@H]4CC(C)=C[C@@]5(O[C@H](C[C@@](C)(O)C(=O)O)CC[C@H]5O)O4)O3)CC[C@H]2O[C@@H]1[C@@H](O)C[C@H](C)[C@H]1O[C@@]2(CCCCO2)CC[C@H]1C [Okadaic Acid, okadaic acid, reference compound]
- PP2A (Western Blot signal) (PP2A; okadaic acid 40 nmol/L alone): 339.39
- PP2A(%) (PP2A; okadaic acid 40 nmol/L alone): 8%
- p-tauSer396 level (%) [1]: 0.855 ± 0.023%
- OD value at 450 nm, Mean ± SD (PC12 cells; okadaic acid 50 nmol/L alone (model group), 24 h, PC12 cells): 0.643 ± 0.014 and 1.225 ± 0.018 and 0.669 ± 0.025

Compound: COCc1cc2oc(=N)c3ccc(C)cc3n2n1 [Compound 8, 2-(methoxymethyl)-8-methyl-5H-benzo[d]pyrazolo[5,1-b][1,3]oxazin-5-imine]
- viability at 5 µM (PC12 cells; [2]): 67.5%
- OD value at 450 nm, Mean ± SD (PC12 cells; [3]): 0.877 ± 0.009

Compound: COCCc1cc2oc(=N)c3ccc(F)cc3n2n1 [Compound 17, 2-(methoxyethyl)-8-fluoro-5H-benzo[d]pyrazolo[5,1-b][1,3]oxazin-5-imine]
- viability at 5 µM (PC12 cells; [2]): 67.9%
- OD value at 450 nm, Mean ± SD (PC12 cells; [3]): 0.882 ± 0.005

Compound: CCOCc1cc2oc(=N)c3cc(F)ccc3n2n1 [Compound 15, 2-(ethoxymethyl)-7-fluoro-5H-benzo[d]pyrazolo[5,1-b][1,3]oxazin-5-imine]
- viability at 5 µM (PC12 cells; [2]): 67.1%
- OD value at 450 nm, Mean ± SD (PC12 cells; [3]): 0.872 ± 0.012

Compound: CC(=O)OCc1cc2oc(=N)c3ccccc3n2n1 [Compound 6, (5-imino-5H-benzo[d]pyrazolo[5,1-b][1,3]oxazin-2-yl)methyl acetate]
- viability at 5 µM (PC12 cells; [2]): 68.4%
- OD value at 450 nm, Mean ± SD (PC12 cells; [3]): 0.889 ± 0.007

Compound: CCOCc1cc2oc(=N)c3ccccc3n2n1 [Compound 3, 2-(ethoxymethyl)-5H-benzo[d]pyrazolo[5,1-b][1,3]oxazin-5-imine]
- viability at 5 µM (PC12 cells; [2]): 66%
- OD value at 450 nm, Mean ± SD (PC12 cells; [3]): 0.858 ± 0.009

Compound: CCCOCc1cc2oc(=N)c3ccccc3n2n1 [Compound 4, 2-(propoxymethyl)-5H-benzo[d]pyrazolo[5,1-b][1,3]oxazin-5-imine]
- viability at 5 µM (PC12 cells; [2]): 65.9%
- OD value at 450 nm, Mean ± SD (PC12 cells; [3]): 0.856 ± 0.012

Compound: CCOc1ccc2c(c1)c(=N)oc1cc(COC)nn12 [Compound 14, 2-(methoxymethyl)-7-ethoxy-5H-benzo[d]pyrazolo[5,1-b][1,3]oxazin-5-imine]
- viability at 5 µM (PC12 cells; [2]): 66.7%
- OD value at 450 nm, Mean ± SD (PC12 cells; [3]): 0.866 ± 0.011

Compound: COCc1cc2oc(=N)c3cc(F)ccc3n2n1 [Compound 11, 2-(methoxymethyl)-7-fluoro-5H-benzo[d]pyrazolo[5,1-b][1,3]oxazin-5-imine]
- viability at 5 µM (PC12 cells; [2]): 66%
- OD value at 450 nm, Mean ± SD (PC12 cells; [3]): 0.857 ± 0.007

Compound: CSCc1cc2oc(=N)c3ccccc3n2n1 [Compound 7, 2-((methylthio)methyl)-5H-benzo[d]pyrazolo[5,1-b][1,3]oxazin-5-imine]
- viability at 5 µM (PC12 cells; [2]): 70.8%
- OD value at 450 nm, Mean ± SD (PC12 cells; [3]): 0.919 ± 0.008

Compound: COCCCc1cc2oc(=N)c3ccc(F)cc3n2n1 [Compound 18, 2-(methoxypropyl)-8-fluoro-5H-benzo[d]pyrazolo[5,1-b][1,3]oxazin-5-imine]
- viability at 5 µM (PC12 cells; [2]): 65.5%
- OD value at 450 nm, Mean ± SD (PC12 cells; [3]): 0.851 ± 0.007

Compound: COCc1cc2oc(=N)c3cc(OC)ccc3n2n1 [Compound 13, 2-(methoxymethyl)-7-methoxy-5H-benzo[d]pyrazolo[5,1-b][1,3]oxazin-5-imine]
- viability at 5 µM (PC12 cells; [2]): 67.7%
- OD value at 450 nm, Mean ± SD (PC12 cells; [3]): 0.879 ± 0.009

Compound: COCc1cc2oc(=N)c3ccc(F)cc3n2n1 [Compound 10, 2-(methoxymethyl)-8-fluoro-5H-benzo[d]pyrazolo[5,1-b][1,3]oxazin-5-imine]
- viability at 5 µM (PC12 cells; [2]): 64.8%
- OD value at 450 nm, Mean ± SD (PC12 cells; [3]): 0.842 ± 0.008

Compound: N=c1oc2cc(CO)nn2c2ccccc12 [Compound 1, (5-imino-5H-benzo[d]pyrazolo[5,1-b][1,3]oxazin-2-yl) methanol]
- PP2A (Western Blot signal) (PP2A; [4]): 437.09
- PP2A(%) (PP2A; [4]): 14%
- PP2A (Western Blot signal) (PP2A; [5]): 625.9
- PP2A(%) (PP2A; [5]): 17%
- PP2A (Western Blot signal) (PP2A; [6]): 953.23
- PP2A(%) (PP2A; [6]): 22%
- effect on the PP2A expression level (PP2A; compound 1, 5 and 10 μmol/L, compared with okadaic acid only): can significantly increase the PP2A expression level dose-dependently
- viability at 0.1 µM (PC12 cells; Rattus norvegicus, PC-12, 24 h, compound 0.1 μmol/L, 2 h, then okadaic acid 50 nmol/L, 24 h, PC12 cells): 58.2%
- viability at 0.5 µM (PC12 cells; Rattus norvegicus, PC-12, 24 h, compound 0.5 μmol/L, 2 h, then okadaic acid 50 nmol/L, 24 h, PC12 cells): 60.2%
- viability at 1 µM (PC12 cells; Rattus norvegicus, PC-12, 24 h, compound 1 μmol/L, 2 h, then okadaic acid 50 nmol/L, 24 h, PC12 cells): 63.1%
- viability at 5 µM (PC12 cells; [2]): 70.5%
- viability at 10 µM (PC12 cells; Rattus norvegicus, PC-12, 24 h, compound 10 μmol/L, 2 h, then okadaic acid 50 nmol/L, 24 h, PC12 cells): 76.6%
- survival rate compared with okadaic acid model group (PC12 cells; compound 0.1 μmol/L): statistical difference (P<0.05)
- OD value at 450 nm, Mean ± SD (PC12 cells; compound 0.1 μmol/L, 2 h, then okadaic acid 50 nmol/L, 24 h, PC12 cells): 1.337 ± 0.008
- OD value at 450 nm, Mean ± SD (PC12 cells; compound 0.5 μmol/L, 2 h, then okadaic acid 50 nmol/L, 24 h, PC12 cells): 1.382 ± 0.013
- OD value at 450 nm, Mean ± SD (PC12 cells; compound 1 μmol/L, 2 h, then okadaic acid 50 nmol/L, 24 h, PC12 cells): 1.449 ± 0.013
- Survival rate % (PC12 cells; compound 5 μmol/L, 2 h, then okadaic acid 50 nmol/L, 24 h, PC12 cells, 1440 min, 5 µM): 71.70%
- OD value at 450 nm, Mean ± SD (PC12 cells; compound 10 μmol/L, 2 h, then okadaic acid 50 nmol/L, 24 h, PC12 cells): 1.76 ± 0.032
- survival rate compared with okadaic acid model group (PC12 cells; compound 0.5, 1, 5 and 10 μmol/L): significant statistical differences (P<0.01)

Compound: CCc1ccc2c(=N)oc3cc(COC)nn3c2c1 [Compound 9, 2-(methoxymethyl)-8-ethyl-5H-benzo[d]pyrazolo[5,1-b][1,3]oxazin-5-imine]
- viability at 5 µM (PC12 cells; [2]): 65.6%
- OD value at 450 nm, Mean ± SD (PC12 cells; [3]): 0.852 ± 0.010
